What was measured:
Format in all cases: cell-based, Diaphorina citri
[1] = test system: neuron 6B (rhinarial plate on flagellomere 6); assay: single-sensillum electrophysiology, odor response of neuron 6B; settings: for odor response (frequency of action potentials during stimulus minus baseline), 6B: Table 1, odor diluted to 1%, 50 μL in cartridge
[2] = test system: neuron 2B (rhinarial plate on flagellomere 2); assay: single-sensillum electrophysiology, odor response of neuron 2B; settings: for odor response (frequency of action potentials during stimulus minus baseline), 2B: Table 1, odor diluted to 1%, 50 μL in cartridge; on response to ultra-prolonged activators, 2B: key: 0, no response; +, >50 spikes/second; ++, >100 spikes/second; +++, >150 spikes/second
[3] = test system: neuron 4A (rhinarial plate on flagellomere 4); assay: single-sensillum electrophysiology, odor response of neuron 4A; settings: for odor response (frequency of action potentials during stimulus minus baseline), 4A: Table 1, odor diluted to 1%, 50 μL in cartridge; on response to ultra-prolonged activators, 4A: key: 0, no response; +, >50 spikes/second; ++, >100 spikes/second; +++, >150 spikes/second
[4] = test system: neuron 2C (rhinarial plate on flagellomere 2); assay: single-sensillum electrophysiology, odor response of neuron 2C; settings: for odor response (frequency of action potentials during stimulus minus baseline), 2C: Table 1, odor diluted to 1%, 50 μL in cartridge
[5] = test system: neuron 7A (rhinarial plate on flagellomere 7); assay: single-sensillum electrophysiology, odor response of neuron 7A; settings: for odor response (frequency of action potentials during stimulus minus baseline), 7A: Table 1, odor diluted to 1%, 50 μL in cartridge; on all read-outs here: key: 0, no response; +, >50 spikes/second; ++, >100 spikes/second; +++, >150 spikes/second
[6] = test system: neuron 4B (rhinarial plate on flagellomere 4); settings: for odor response (frequency of action potentials during stimulus minus baseline), 4B: Table 1, odor diluted to 1%, 50 μL in cartridge
[7] = test system: neuron 6C (rhinarial plate on flagellomere 6); assay: single-sensillum electrophysiology, odor response of neuron 6C; settings: for odor response (frequency of action potentials during stimulus minus baseline), 6C: Table 1, odor diluted to 1%, 50 μL in cartridge
[8] = test system: neuron 2A (rhinarial plate on flagellomere 2); assay: single-sensillum electrophysiology, odor response of neuron 2A; settings: for odor response (frequency of action potentials during stimulus minus baseline), 2A: Table 1, odor diluted to 1%, 50 μL in cartridge; on all read-outs here: key: 0, no response; +, >50 spikes/second; ++, >100 spikes/second; +++, >150 spikes/second
[9] = test system: neuron 4C (rhinarial plate on flagellomere 4); assay: single-sensillum electrophysiology, odor response of neuron 4C; settings: for odor response (frequency of action potentials during stimulus minus baseline), 4C: Table 1, odor diluted to 1%, 50 μL in cartridge
[10] = test system: neuron 7C (rhinarial plate on flagellomere 7); assay: single-sensillum electrophysiology, odor response of neuron 7C; settings: for odor response (frequency of action potentials during stimulus minus baseline), 7C: Table 1, odor diluted to 1%, 50 μL in cartridge
[11] = test system: neuron 7B (rhinarial plate on flagellomere 7); settings: for odor response (frequency of action potentials during stimulus minus baseline), 7B: Table 1, odor diluted to 1%, 50 μL in cartridge
[12] = test system: neuron 6A (rhinarial plate on flagellomere 6); assay: single-sensillum electrophysiology, odor response of neuron 6A; settings: for odor response (frequency of action potentials during stimulus minus baseline), 6A: Table 1, odor diluted to 1%, 50 μL in cartridge
[13] = Table 3, 10^−2 in paraffin oil, 50 μL, odor puff of 0.5 sec

SMILES	odor response (frequency of action potentials during stimulus minus baseline), 6B [1]	odor response (frequency of action potentials during stimulus minus baseline), 2B [2]	odor response (frequency of action potentials during stimulus minus baseline), 4A [3]	odor response (frequency of action potentials during stimulus minus baseline), 2C [4]	odor response (frequency of action potentials during stimulus minus baseline), 7A [5]	odor response (frequency of action potentials during stimulus minus baseline), 4B [6]	odor response (frequency of action potentials during stimulus minus baseline), 6C [7]	odor response (frequency of action potentials during stimulus minus baseline), 2A [8]	odor response (frequency of action potentials during stimulus minus baseline), 4C [9]	odor response (frequency of action potentials during stimulus minus baseline), 7C [10]	odor response (frequency of action potentials during stimulus minus baseline), 7B [11]	odor response (frequency of action potentials during stimulus minus baseline), 6A [12]	also measured
CC(=O)CCC=C(C)C [6-methyl-5-hepten-2-one]	0	0	0	+ (+, >50 spikes/second)	0	0	0	0	0	0	0	0	–
C=C(C)[C@H]1CC=C(C)C(=O)C1 [(+)-carvone]	++ (++, >100 spikes/second)	0	0	0	0	++ (++, >100 spikes/second)	0	0	0	0	0	0	response to ultra-prolonged activators, 6B [1, 13]: ++ (++, >100 spikes/second); response to ultra-prolonged activators, 2B [2, 13]: 0; response to ultra-prolonged activators, 4A [3, 13]: 0; response to ultra-prolonged activators, 2C [4, 13]: 0; response to ultra-prolonged activators, 7A [5, 13]: 0; response to ultra-prolonged activators, 4B [6, 13]: ++ (++, >100 spikes/second); response to ultra-prolonged activators, 6C [7, 13]: 0; response to ultra-prolonged activators, 2A [8, 13]: 0; response to ultra-prolonged activators, 4C [9, 13]: 0; response to ultra-prolonged activators, 7C [10, 13]: 0; response to ultra-prolonged activators, 7B [11, 13]: 0; response to ultra-prolonged activators, 6A [12, 13]: 0
CCC/C=C/C=O [E2-hexenal]	+ (+, >50 spikes/second)	0	0	++ (++, >100 spikes/second)	0	+ (+, >50 spikes/second)	0	0	0	0	0	0	–
C=C/C(C)=C/CC=C(C)C [E-β-Ocimene]	0	0	0	++ (++, >100 spikes/second)	0	0	0	0	0	0	0	0	–
CCC/C=C\CO [Z2-hexanol]	+ (+, >50 spikes/second)	0	0	0	0	+ (+, >50 spikes/second)	0	0	0	0	0	0	–
CC/C=C\CC=O [Z3-hexenal]	0	0	++ (++, >100 spikes/second)	0	0	0	0	0	0	0	+ (+, >50 spikes/second)	++ (++, >100 spikes/second)	–
CC/C=C\CCO [Z3-hexenol]	+ (+, >50 spikes/second)	0	0	0	0	+ (+, >50 spikes/second)	0	0	0	0	0	0	–
C=C/C(C)=C\C/C=C(\C)CCC=C(C)C [ZE-α-farnesene]	0	0	0	+ (+, >50 spikes/second)	0	0	0	0	0	0	0	0	–
CC(=O)c1ccccc1 [acetophenone]	++ (++, >100 spikes/second)	0	0	0	0	++ (++, >100 spikes/second)	0	0	0	+ (+, >50 spikes/second)	0	0	–
C=CCSSCC=C [allyl disulfide]	+ (+, >50 spikes/second)	0	0	0	0	++ (++, >100 spikes/second)	0	0	0	0	0	0	–
O=Cc1ccccc1 [benzaldehyde]	0	0	0	+ (+, >50 spikes/second)	0	+ (+, >50 spikes/second)	0	0	0	0	0	0	–

Source: patent US20180055032A1, “ODORS FOR PSYLLID TRAPPING, REPELLING AND CONTROL” (The Regents of the University of California, priority 2011, published 2018)
